Reference: ChEMBL document CHEMBL3885881, “DrugMatrix”

Organism: Rattus norvegicus
Test: DrugMatrix - Regimen: Daily Repeat
Format: toxicity, organism-based, Sprague-Dawley
Parameters: regimen Daily Repeat, gender Male, age 6-8 weeks
Settings: in vivo, sc, route subcutaneous, […]; for ABSOLUTE BASOPHIL / ABSOLUTE EOSINOPHIL / ABSOLUTE LYMPHOCYTE / ABSOLUTE MONOCYTE / ABSOLUTE SEGMENTED NEUTROPHIL / BASOPHIL / EOSINOPHIL / ERYTHROCYTE COUNT / HEMATOCRIT / HEMOGLOBIN / LEUKOCYTE COUNT / LYMPHOCYTE / MEAN CORPUSCULAR HEMOGLOBIN / MEAN CORPUSCULAR HEMOGLOBIN CONCENTRATION / MEAN CORPUSCULAR VOLUME / MONOCYTE / NEUTROPHIL / NUCLEATED RED BLOOD CELLS / PLATELET COUNT: tissue Blood; for ALANINE AMINOTRANSFERASE / ALBUMIN / ALKALINE PHOSPHATASE / ASPARTATE AMINOTRANSFERASE / BLOOD UREA NITROGEN / CARBON DIOXIDE / CHLORIDE / CHOLESTEROL / CREATINE PHOSPHOKINASE / CREATININE / GLUCOSE / LACTATE DEHYDROGENASE / LIPASE / PHOSPHORUS / POTASSIUM / SODIUM / TOTAL BILIRUBIN / TOTAL PROTEIN / URIC ACID: tissue Plasma
[1] = 260 mg/kg, 72 h, dose level Low, time 3 day
[2] = 260 mg/kg, 120 h, dose level Low, time 5 day
[3] = 2600 mg/kg, 72 h, dose level High, time 3 day
[4] = 2600 mg/kg, 120 h, dose level High, time 5 day

`c1ccc2sc(SSc3nc4ccccc4s3)nc2c1` [BENZOTHIAZYL DISULFIDE] was tested, and the “ABSOLUTE BASOPHIL” value [1] was 0 CELLS/uL, the “ABSOLUTE EOSINOPHIL” value [1] was 108 CELLS/uL and the “ABSOLUTE LYMPHOCYTE” value [1] was 9435.33 CELLS/uL. The “ABSOLUTE MONOCYTE” value [1] was 328 CELLS/uL, the “ABSOLUTE SEGMENTED NEUTROPHIL” value [1] was 1062 CELLS/uL and the BASOPHIL [1] was 0%. For the same compound, the EOSINOPHIL [1] was 1%, the “ERYTHROCYTE COUNT” value [1] was 5.25 x10E6/uL and the HEMATOCRIT [1] was 33.03%. For the same compound, the HEMOGLOBIN [1] was 12.27 G/DL, the “LEUKOCYTE COUNT” value [1] was 10.93 x10E3/uL and the LYMPHOCYTE [1] was 86.33%. For the same compound, the “MEAN CORPUSCULAR HEMOGLOBIN” value [1] was 23.33 pg, the “MEAN CORPUSCULAR HEMOGLOBIN CONCENTRATION” value [1] was 37.13 G/DL and the “MEAN CORPUSCULAR VOLUME” value [1] was 62.87 fL. For the same compound, the MONOCYTE [1] was 3%, the NEUTROPHIL [1] was 9.67% and the “NUCLEATED RED BLOOD CELLS” value [1] was 0 /100WBC. For the same compound, the “PLATELET COUNT” value [1] was 1377.33 x10E3/uL, the “ALANINE AMINOTRANSFERASE” value [1] was 42 u/L and the ALBUMIN [1] was 3.87 G/DL. For the same compound, the “ALKALINE PHOSPHATASE” value [1] was 365.33 u/L, the “ASPARTATE AMINOTRANSFERASE” value [1] was 91.67 u/L and the “BLOOD UREA NITROGEN” value [1] was 16 mg/dL. For the same compound, the “CARBON DIOXIDE” value [1] was 26 mmol/L, the CHLORIDE [1] was 105.33 MEQ/L and the CHOLESTEROL [1] was 77.33 mg/dL. The “CREATINE PHOSPHOKINASE” value [1] was 411.33 u/L, the CREATININE [1] was 0.21 mg/dL and the GLUCOSE [1] was 149.33 mg/dL. The “LACTATE DEHYDROGENASE” value [1] was 600.33 u/L, the LIPASE [1] was 8.67 u/L and the PHOSPHORUS [1] was 12.73 mg/dL. The POTASSIUM [1] was 6.51 MEQ/L, the SODIUM [1] was 145.03 MEQ/L and the “TOTAL BILIRUBIN” value [1] was 0.17 mg/dL. For the same compound, the “TOTAL PROTEIN” value [1] was 5.4 G/DL, the “URIC ACID” value [1] was 1.47 mg/dL and the “ABSOLUTE BASOPHIL” value [2] was 0 CELLS/uL. For the same compound, the “ABSOLUTE EOSINOPHIL” value [2] was 214.33 CELLS/uL, the “ABSOLUTE LYMPHOCYTE” value [2] was 15055 CELLS/uL and the “ABSOLUTE MONOCYTE” value [2] was 283.33 CELLS/uL. The “ABSOLUTE SEGMENTED NEUTROPHIL” value [2] was 1280.67 CELLS/uL, the BASOPHIL [2] was 0% and the EOSINOPHIL [2] was 1.33%. For the same compound, the “ERYTHROCYTE COUNT” value [2] was 5.49 x10E6/uL, the HEMATOCRIT [2] was 34.87% and the HEMOGLOBIN [2] was 13.17 G/DL. The “LEUKOCYTE COUNT” value [2] was 16.83 x10E3/uL, the LYMPHOCYTE [2] was 89.33% and the “MEAN CORPUSCULAR HEMOGLOBIN” value [2] was 24.1 pg. The “MEAN CORPUSCULAR HEMOGLOBIN CONCENTRATION” value [2] was 37.8 G/DL, the “MEAN CORPUSCULAR VOLUME” value [2] was 63.7 fL and the MONOCYTE [2] was 1.67%. For the same compound, the NEUTROPHIL [2] was 7.67%, the “NUCLEATED RED BLOOD CELLS” value [2] was 0.67 /100WBC and the “PLATELET COUNT” value [2] was 1489.67 x10E3/uL. For the same compound, the “ALANINE AMINOTRANSFERASE” value [2] was 39 u/L, the ALBUMIN [2] was 3.93 G/DL and the “ALKALINE PHOSPHATASE” value [2] was 463.33 u/L. The “ASPARTATE AMINOTRANSFERASE” value [2] was 92.67 u/L, the “BLOOD UREA NITROGEN” value [2] was 18.33 mg/dL and the “CARBON DIOXIDE” value [2] was 28.33 mmol/L. For the same compound, the CHLORIDE [2] was 105.33 MEQ/L, the CHOLESTEROL [2] was 70.67 mg/dL and the “CREATINE PHOSPHOKINASE” value [2] was 529 u/L. The CREATININE [2] was 0.19 mg/dL, the GLUCOSE [2] was 169 mg/dL and the “LACTATE DEHYDROGENASE” value [2] was 102.33 u/L. It also gave an LIPASE [2] of 8 u/L, a PHOSPHORUS [2] of 12.13 mg/dL and a POTASSIUM [2] of 6.59 MEQ/L. For the same compound, the SODIUM [2] was 147.43 MEQ/L, the “TOTAL BILIRUBIN” value [2] was 0.2 mg/dL and the “TOTAL PROTEIN” value [2] was 5.63 G/DL. For the same compound, the “URIC ACID” value [2] was 1.63 mg/dL, the “ABSOLUTE BASOPHIL” value [3] was 0 CELLS/uL and the “ABSOLUTE EOSINOPHIL” value [3] was 50.67 CELLS/uL. For the same compound, the “ABSOLUTE LYMPHOCYTE” value [3] was 11758.67 CELLS/uL, the “ABSOLUTE MONOCYTE” value [3] was 266.67 CELLS/uL and the “ABSOLUTE SEGMENTED NEUTROPHIL” value [3] was 857.33 CELLS/uL. For the same compound, the BASOPHIL [3] was 0%, the EOSINOPHIL [3] was 0.33% and the “ERYTHROCYTE COUNT” value [3] was 5.31 x10E6/uL. The HEMATOCRIT [3] was 32.77%, the HEMOGLOBIN [3] was 12.3 G/DL and the “LEUKOCYTE COUNT” value [3] was 12.93 x10E3/uL. For the same compound, the LYMPHOCYTE [3] was 91.33%, the “MEAN CORPUSCULAR HEMOGLOBIN” value [3] was 23.2 pg and the “MEAN CORPUSCULAR HEMOGLOBIN CONCENTRATION” value [3] was 37.53 G/DL. The “MEAN CORPUSCULAR VOLUME” value [3] was 61.7 fL, the MONOCYTE [3] was 2% and the NEUTROPHIL [3] was 6.33%. For the same compound, the “NUCLEATED RED BLOOD CELLS” value [3] was 0 /100WBC, the “PLATELET COUNT” value [3] was 1463.67 x10E3/uL and the “ALANINE AMINOTRANSFERASE” value [3] was 24.33 u/L. For the same compound, the ALBUMIN [3] was 3.73 G/DL, the “ALKALINE PHOSPHATASE” value [3] was 327.67 u/L and the “ASPARTATE AMINOTRANSFERASE” value [3] was 90.67 u/L. For the same compound, the “BLOOD UREA NITROGEN” value [3] was 16 mg/dL, the “CARBON DIOXIDE” value [3] was 24 mmol/L and the CHLORIDE [3] was 104 MEQ/L. For the same compound, the CHOLESTEROL [3] was 76.33 mg/dL, the “CREATINE PHOSPHOKINASE” value [3] was 376.67 u/L and the CREATININE [3] was 0.16 mg/dL. For the same compound, the GLUCOSE [3] was 151.67 mg/dL, the “LACTATE DEHYDROGENASE” value [3] was 543.33 u/L and the LIPASE [3] was 8.33 u/L. It also gave a PHOSPHORUS [3] of 12 mg/dL, a POTASSIUM [3] of 6.59 MEQ/L and an SODIUM [3] of 145.13 MEQ/L. For the same compound, the “TOTAL BILIRUBIN” value [3] was 0.3 mg/dL, the “TOTAL PROTEIN” value [3] was 5.2 G/DL and the “URIC ACID” value [3] was 1.63 mg/dL. For the same compound, the “ABSOLUTE BASOPHIL” value [4] was 0 CELLS/uL, the “ABSOLUTE EOSINOPHIL” value [4] was 0 CELLS/uL and the “ABSOLUTE LYMPHOCYTE” value [4] was 11990.67 CELLS/uL. The “ABSOLUTE MONOCYTE” value [4] was 262 CELLS/uL, the “ABSOLUTE SEGMENTED NEUTROPHIL” value [4] was 914 CELLS/uL and the BASOPHIL [4] was 0%. The EOSINOPHIL [4] was 0%, the “ERYTHROCYTE COUNT” value [4] was 5.81 x10E6/uL and the HEMATOCRIT [4] was 36.07%. The HEMOGLOBIN [4] was 13.33 G/DL, the “LEUKOCYTE COUNT” value [4] was 13.17 x10E3/uL and the LYMPHOCYTE [4] was 91%. The “MEAN CORPUSCULAR HEMOGLOBIN” value [4] was 22.97 pg, the “MEAN CORPUSCULAR HEMOGLOBIN CONCENTRATION” value [4] was 36.97 G/DL and the “MEAN CORPUSCULAR VOLUME” value [4] was 62.1 fL. For the same compound, the MONOCYTE [4] was 2%, the NEUTROPHIL [4] was 7% and the “NUCLEATED RED BLOOD CELLS” value [4] was 0 /100WBC. For the same compound, the “PLATELET COUNT” value [4] was 1293.33 x10E3/uL, the “ALANINE AMINOTRANSFERASE” value [4] was 31 u/L and the ALBUMIN [4] was 3.6 G/DL. The “ALKALINE PHOSPHATASE” value [4] was 266.33 u/L, the “ASPARTATE AMINOTRANSFERASE” value [4] was 72 u/L and the “BLOOD UREA NITROGEN” value [4] was 14.67 mg/dL. For the same compound, the “CARBON DIOXIDE” value [4] was 26.33 mmol/L, the CHLORIDE [4] was 105.67 MEQ/L and the CHOLESTEROL [4] was 83 mg/dL. For the same compound, the “CREATINE PHOSPHOKINASE” value [4] was 133 u/L, the CREATININE [4] was 0.23 mg/dL and the GLUCOSE [4] was 156 mg/dL. For the same compound, the “LACTATE DEHYDROGENASE” value [4] was 67.67 u/L, the LIPASE [4] was 8.67 u/L and the PHOSPHORUS [4] was 12.23 mg/dL. The POTASSIUM [4] was 6.11 MEQ/L, the SODIUM [4] was 145.9 MEQ/L and the “TOTAL BILIRUBIN” value [4] was 0.1 mg/dL. The “TOTAL PROTEIN” value [4] was 5.63 G/DL and the “URIC ACID” value [4] was 2 mg/dL.
